# Residues, ends and D or L forms follow the SMILES beside them. *: point of attachment. Palmitoyl = CCCCCCCCCCCCCCCC(=O)*
# Assay: Franz cell ex vivo skin explant penetration with 3D OrbiSIMS analysis
# Type: in vitro ADME, human
# Settings: after 1 hour in Franz cell; formulation with glycerin+methyl gluceth-20 versus glycerin only (FIG. 1)
# Method: For ex vivo analysis, full thickness human skin tissue was removed during cosmetic surgery from Caucasian female donors (aged 35-70). The explant was frozen immediately post-surgery, shipped and stored at −20° C. prior to use.
# The tissue was then defrosted, cut and mounted, dermal side down, in a Franz-type static diffusion cell set-up (Franz, 1975), with an exposed surface area of 1.1 cm^2. Infinite doses of the cosmetic formulations were applied to the donor chamber, with the explant exposed to the formulations for 1 hour in a water bath set to 36.5° C. Sink conditions were maintained throughout the experiments.
# After 1 hour, the Franz cell was dismantled, excess formulation was removed with a dry sponge and the skin explant was wiped with a sponge soaked in Teepol Solution (3% v/v). Next, the explant was dehydrated under vacuum at room temperature for 24 hours before 3D OrbiSIMS analysis 3D OrbiSIMS Analysis […]
# A 20 KeV Ar 3000^+ analysis beam with a diameter of 20 μm was used as the primary ion source. Samples were analysed at ambient temperature across a 400×400 μm area in positive polarity with sawtooth raster mode and a total crater size of 486×486 μm. […] Mass spectra were recorded at a resolution of 240,000 at m/z 200 in the mass range of 75 to 1,125 m/z. […]
smiles,measurement,value
"CCCCCCCCCCCCCCCC(=O)NCC(=O)N[C@@H](Cc1c[nH]cn1)C(=O)N[C@@H](CCCCN)C(=O)O [Pal-GHK, N-Palmitoyl-Gly-His-Lys] (Palmitoyl-Gly-His-Lys-OH; C-terminus assumed)",Pal-GHK peptide ion intensity in skin explant,more peptide ion present
